15 compounds from patent US9238634B2, “Anti-inflammatory metabolite derived from omega-3-type fatty acid” (THE UNIVERSITY OF TOKYO, priority 2010, dated 2016) can be followed below.

The test system of the test is PMN (neutrophils). Put plainly: Zymosan peritonitis model, number of PMN (neutrophils) in intraperitoneal cells by FACS. In kind it is in vivo, C57BL/6J mice. As to conditions: for PMN (mean % suppression) / Inhibition rate (PMN inhibition): caudal vein, zymosan 1 mg i.p.; for PMN (mean % suppression): two hours; for suppression of neutrophil infiltration: caudal vein (FIG. 4C); for Inhibition rate (PMN inhibition): cells recovered two hours later. The procedure: [FIG. 4A] […] The model was produced by inducing acute peritonitis by intraperitoneal administration of 1 mg of zymosan to C57BL6 mice. From the left, 17,18-EpETE, 5-hydroxy-17,18-epoxy-ETE (5hy-17,18-EpETE), 8-hydroxy-17,18-epoxy-ETE (8hy-17,18-EpETE), 12-hydroxy-17,18-epoxy-ETE (12hy-17,18-EpETE), and 15-hydroxy-17,18-epoxy-ETE (15hy-17,18-EpETE) respectively ([…]) were injected from a caudal vein of the mouse, and peritonitis was initiated by intraperitoneal administration of 1 mg of zymosan five minutes later. Intraperitoneal cells were recovered two hours later, and the results obtained by analyzing the number of PMN (neutrophils) of each by FACS are shown. […]
Zymosan peritonitis induced by intraperitoneal administration of zymosan, which is a cell wall component of yeast, was used as the inflammation model. This model is suited to the analysis of cytokines and eicosanoids since the intraperitoneal exudate can be recovered.
Zymosan A (Wako Pure Chemical Industries) was suspended in physiological saline to make 1 mg/mL and warmed for 30 minutes at 37° C. The zymosan A solution was then vortexed and returned to room temperature. A compound synthesized in a previous example was placed in a 1.5 mL tube and completely dried by driving off the solvent by nitrogen. It was then dissolved by adding physiological saline. […] Groups injected with only physiological saline (saline) or dexamethasone (10 μg/mouse), which is an anti-inflammatory steroid, were used as controls. Approximately two minutes later, 1 mL of zymosan A solution was administered intraperitoneally. Two hours later, cells that had exuded into the peritoneal cavity were recovered by tube by PBS, and the cells were counted. This tube was then centrifuged for five minutes at 1200 rpm, 4° C., and the supernatant was discarded. The precipitate (pellets) was suspended in PBS, and population analysis was performed by FACS three-color stain.
Peritoneal cells were adjusted to 2.5×10^6 cells/mL, and 200 μL was placed in a 5 mL round-bottomed tube (BD Falcon) (5×10^5 cells/tube). A quantity of 1 μL/tube of anti-mouse CD16/CD32 antibody (0.5 mg/mL; BD Biosciences) was added to this tube and incubated for 10 minutes at room temperature. Staining antibody mix (1.0 μL/sample of FITC-bound anti-mouse F4/80 antibody (0.5 mg/mL; eBioscience), 0.5 μL of PE-bound anti-mouse Ly-6G&Ly-6C antibody (0.2 mg/mL; eBioscience), and 0.5 μL of perCP-Cy5.5-bound anti-mouse CD11b antibody (0.2 mg/mL; eBioscience) per sample prepared by dilution by 50 μL of PBS) was added to this tube in a quantity of 50 μL/tube and incubated for 15 minutes at room temperature shielded from light. Measurement was performed by an FACS Calibur (BD Biosciences).

Setting [1] is: 100 ng, Table 5 (FIG. 4B), mean of 3-4 studies.
Where [2] appears, read: 100 ng, Table 6 (FIG. 4D), mean of 6-11 studies.
The mark [3] stands for this setting: 100 ng, Table 3 (FIG. 4A), mean of 4-6 studies.
[4] abbreviates: 100 ng, Table 4 (FIG. 4B), mean of 3-4 studies.

For the compound `CCC1OC1CC=CCC(O)C=CC=CCC=CCC=CCCC(=O)O` (stereo not shown) [14-hy-19,20-EpDPE, 14-hydroxy-19,20-epoxy-docosapentaeonic acid], the “PMN (mean % suppression)” value under setting [1] was 57.3%.
Consider “14-hydroxy-19,20-epoxy-docosatetraenoic acid [14hy-19,20-EpDTE]”, for which the “suppression of neutrophil infiltration, result in words” value (shortened to “suppression … in words”) (100 ng) was “statistically significant effects”. For the same compound, the “PMN (mean % suppression)” value under setting [2] amounted to 15.35%.
For the compound `CCC1OC1C/C=C\C/C=C\C=C\C(O)C/C=C\CCCC(=O)O` (stereo not shown) [8-hy-17,18-EpETE, 8-hydroxy-17,18-epoxy-eicosatetraenoic acid], the “PMN (mean % suppression)” value under setting [3] was 10.4%.
With `CCC1OC1CC=CCC=CC=CC(O)CC=CCC=CCCC(=O)O` (stereo not shown) [10-hy-19,20-EpDPE, 10-hydroxy-19,20-epoxy-docosapentaenoic acid], the “PMN (mean % suppression)” value under setting [1] is listed as 20.7%.
For `CCC1OC1CC=CCC=CCC=CC=CC(O)CC=CCCC(=O)O` (stereo not shown) [7-hy-19,20-EpDPE, 7-hydroxy-19,20-epoxy-docosapentaenoic acid], the “PMN (mean % suppression)” value under setting [4] is recorded as 0.0% and the “PMN (mean % suppression)” value (500 ng, Table 4 (FIG. 4B)) turned out to be 8.7%. Further, the “suppression … in words” value (500 ng) is recorded as “tend to suppress neutrophil infiltration”.
For “17-hydroxy-19,20-epoxy-docosatetraenoic acid [17hy-19,20-EpDTE]”, under “100 ng”, the “suppression … in words” value was “statistically significant effects”. The “PMN (mean % suppression)” value under setting [2] is reported as 23.28%.
As for `CCC1OC1C/C=C\C/C=C\C/C=C\C/C=C\CCCC(=O)O` (stereo not shown) [17,18-EpETE, 17,18-epoxyeicosatetraenoic acid, reference compound], the “PMN (mean % suppression)” value under setting [3] is reported as 0.0%.
As to `CCC1OC1CC(O)C=CC=CCC=CCC=CCC=CCCC(=O)O` (stereo not shown) [17-hy-19,20-EpDPE, 17-hydroxy-19,20-epoxy-docosapentaenoic acid], the “PMN (mean % suppression)” value under setting [1] came to 59.5%.
Take `CCC1OC1CC=CCC=CCC=CCC=CC=CC(O)CCC(=O)O` (stereo not shown) [4-hy-19,20-EpDPE, 4-hydroxy-19,20-epoxy-docosapentaenoic acid]: the “suppression … in words” value (100 ng) was “tend to suppress neutrophil infiltration”. Also, the “PMN (mean % suppression)” value runs as follows: under setting [4], 2.1%; (500 ng, Table 4 (FIG. 4B)) 0.0%.
In the case of `CCC1OC1CC=CCC=CCC=CC=CC(O)CCCC(=O)O` (stereo not shown) [5-hy-17,18-EpETE, 5-hydroxy-17,18-epoxy-eicosatetraeonic acid], the “PMN (mean % suppression)” value under setting [3] worked out at 50.6%.
On to `CCC1OC1C/C=C\C/C=C\C=C\C(O)C/C=C\CCCCCC(=O)O` (stereo not shown) [10hy-19,20-EpDTE, 10-hydroxy-19,20-epoxy-docosatetraenoic acid], for which the “suppression … in words” value (100 ng) was “tendency toward suppression”. Also, the “PMN (mean % suppression)” value under setting [2] was found to be 8.27%.
As for `CCC1OC1CC=CCC(O)C=CC=CCC=CCCCC(=O)O` (stereo not shown) [12hy-17,18-EpETE, 12-hydroxy-17,18-epoxy-eicosatetraenoic acid], the “suppression of neutrophil infiltration” value was 30% (1 ng/mouse) and “approximately 40%” (10 ng/mouse). For the same compound, the “PMN (mean % suppression)” value under setting [3] stood at 48.4%. For the same compound, the “neutrophil-suppressing activity compared with dexamethasone control” value (1 or 10 ng/mouse versus 10 μg/mouse of dexamethasone) is on record as “equivalent to or better than”. In addition, the “Inhibition rate (PMN inhibition)” value (dose 0.44 ng) was found to be 28.8%, the “Inhibition rate (PMN inhibition)” value (dose 4.35 ng) amounted to 39.3%, the “Inhibition rate (PMN inhibition)” value (dose 43.48 ng) is given as 56.3% and the “Inhibition rate (PMN inhibition)” value (dose 434.8 ng) is on record as 49.8%. The “dose dependence of PMN inhibition” value (doses 0.44 to 434.3 ng (FIG. 4C)) is on record as “dose-dependent”.
Take `CCC1OC1CC(O)/C=C/C=C\C/C=C\C/C=C\CCCC(=O)O` (stereo not shown) [15-hy-17,18-EpETE, 15-hydroxy-17,18-epoxy-eicosatetraenoic acid]: the “PMN (mean % suppression)” value under setting [3] came to 42.9%.
Regarding `CCC1OC1CC=CCC=CCC=CCC=CCC=CCCC(=O)O` (stereo not shown) [19,20-EpDPE, 19,20-epoxydocosapentaenoic acid, reference compound], the “PMN (mean % suppression)” value by setting is: under setting [4], 0.0%; under setting [1], 0.0%.
Take `CCC1OC1CC=CC=CC(O)CC=CCC=CCC=CCCC(=O)O` (stereo not shown) [13-hy-19,20-EpDPE, 13-hydroxy-19,20-epoxy-docosapentaenoic acid]: the “PMN (mean % suppression)” value under setting [1] was determined as 12.0%.
